Test results reported in paper PMC6071250 (2018).

How the values were obtained:
[1] = system: anti-AFT M1 aptamer (DNA, aptamer) ACTGCTAGAGATTTTCCACAT; experiment: TIRE/LSPR spectral shift; details: 3 mM MgCl2, Na+ and K+ (HBB: 120 mM NaCl, 5 mM KCl; PBB: 137 mM NaCl, 2.7 mM KCl); HBB or PBB pH 7.4; stated not to bind; concentration tested not stated; immobilised aptamer
[2] = system: anti-AFT B1 aptamer (DNA, aptamer) GTTGGGCACGTGTTGTCTCTCTGTGTCTCGTGCCCTTCGCTAGGCCCACA; experiment: TIRE/LSPR spectral shift; details: 3 mM MgCl2, Na+ and K+ (HBB: 120 mM NaCl, 5 mM KCl; PBB: 137 mM NaCl, 2.7 mM KCl); HBB or PBB pH 7.4; stated not to bind; concentration tested not stated; immobilised aptamer

C[C@@H]1Cc2c(Cl)cc(C(=O)N[C@@H](Cc3ccccc3)C(=O)O)c(O)c2C(=O)O1
binding [1]: no | binding [2]: no
